Assay results taken from PubChem BioAssay (NCI).
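Grown in 96-well plates, cells were treated for 48 hours with each compound at five concentrations. Insufficient inhibition: endpoint recorded as highest concentration tested. TGI marks complete inhibition of growth.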

Columns and labels:
Experiment in all cases: NCI anticancer screen, dose series, 48 h
HOP-92 NSCLC = system: HOP-92 NSCLC
IGROV1 ovarian = system: IGROV1 ovarian
UACC-257 melanoma = system: UACC-257 melanoma
SK-MEL-2 melanoma = system: SK-MEL-2 melanoma
CAKI-1 renal = system: CAKI-1 renal
NCI-H522 lung = system: NCI-H522 lung
HOP-62 NSCLC = system: HOP-62 NSCLC
T-47D breast = system: T-47D breast
NCI-H23 lung = system: NCI-H23 lung
MDA-N = system: MDA-N
NCI-H226 lung = system: NCI-H226 lung
HCC-2998 colon = system: HCC-2998 colon
LOX IMVI melanoma = system: LOX IMVI melanoma
U251 CNS = system: U251 CNS
786-0 renal = system: 786-0 renal
SF-268 CNS = system: SF-268 CNS
SK-MEL-5 melanoma = system: SK-MEL-5 melanoma
M14 melanoma = system: M14 melanoma
SW-620 colon = system: SW-620 colon
NCI/ADR-RES ovarian = system: NCI/ADR-RES ovarian
TK-10 renal = system: TK-10 renal
MOLT-4 leukemia = system: MOLT-4 leukemia
NCI-H460 lung = system: NCI-H460 lung
OVCAR-4 ovarian = system: OVCAR-4 ovarian
SNB-75 CNS = system: SNB-75 CNS
SR leukemia = system: SR leukemia
KM12 colon = system: KM12 colon
A549 NSCLC = system: A549 NSCLC
UACC-62 melanoma = system: UACC-62 melanoma
MDA-MB-435 = system: MDA-MB-435
COLO 205 colon = system: COLO 205 colon
UO-31 renal = system: UO-31 renal
HT29 colon = system: HT29 colon
SK-MEL-28 melanoma = system: SK-MEL-28 melanoma
DU-145 prostate = system: DU-145 prostate
MALME-3M melanoma = system: MALME-3M melanoma
OVCAR-5 ovarian = system: OVCAR-5 ovarian
HCT-116 colon = system: HCT-116 colon
CCRF-CEM leukemia = system: CCRF-CEM leukemia
BT-549 breast = system: BT-549 breast
RXF 393 renal = system: RXF 393 renal
HCT-15 colon = system: HCT-15 colon
HS 578T breast = system: HS 578T breast
ACHN renal = system: ACHN renal
RPMI-8226 leukemia = system: RPMI-8226 leukemia
SNB-19 CNS = system: SNB-19 CNS
SF-295 CNS = system: SF-295 CNS
SN12C renal = system: SN12C renal
K-562 leukemia = system: K-562 leukemia
OVCAR-3 ovarian = system: OVCAR-3 ovarian
SK-OV-3 ovarian = system: SK-OV-3 ovarian
MDA-MB-231 breast = system: MDA-MB-231 breast
OVCAR-8 ovarian = system: OVCAR-8 ovarian
A498 renal = system: A498 renal
PC-3 prostate = system: PC-3 prostate
EKVX NSCLC = system: EKVX NSCLC

O=c1c2sc3nc(NCCN4CCCCC4)ncc3c2ncn1-c1ccccc1
TGI (HOP-92 NSCLC): 95.5 µM | TGI (IGROV1 ovarian): > 100 µM | TGI (UACC-257 melanoma): > 100 µM | TGI (SK-MEL-2 melanoma): > 100 µM | TGI (CAKI-1 renal): > 100 µM | TGI (NCI-H522 lung): > 100 µM | TGI (HOP-62 NSCLC): > 100 µM | TGI (T-47D breast): > 100 µM | TGI (NCI-H23 lung): > 100 µM | TGI (MDA-N): > 100 µM | TGI (NCI-H226 lung): > 100 µM | TGI (HCC-2998 colon): > 100 µM | TGI (LOX IMVI melanoma): 41.9 µM | TGI (U251 CNS): > 100 µM | TGI (786-0 renal): > 100 µM | TGI (SF-268 CNS): > 100 µM | TGI (SK-MEL-5 melanoma): 36.3 µM | TGI (M14 melanoma): 39.2 µM | TGI (SW-620 colon): > 100 µM | TGI (NCI/ADR-RES ovarian): > 100 µM | TGI (TK-10 renal): > 100 µM | TGI (MOLT-4 leukemia): > 100 µM | TGI (NCI-H460 lung): > 100 µM | TGI (OVCAR-4 ovarian): > 100 µM | TGI (SNB-75 CNS): > 100 µM | TGI (SR leukemia): > 100 µM | TGI (KM12 colon): > 100 µM | TGI (A549 NSCLC): > 100 µM | TGI (UACC-62 melanoma): > 100 µM | TGI (MDA-MB-435): > 100 µM | TGI (COLO 205 colon): > 100 µM | TGI (UO-31 renal): 49.9 µM | TGI (HT29 colon): > 100 µM | TGI (SK-MEL-28 melanoma): > 100 µM | TGI (DU-145 prostate): > 100 µM | TGI (MALME-3M melanoma): 58.4 µM | TGI (OVCAR-5 ovarian): > 100 µM | TGI (HCT-116 colon): > 100 µM | TGI (CCRF-CEM leukemia): > 100 µM | TGI (BT-549 breast): > 100 µM | TGI (RXF 393 renal): 84.4 µM | TGI (HCT-15 colon): > 100 µM | TGI (HS 578T breast): > 100 µM | TGI (ACHN renal): > 100 µM | TGI (RPMI-8226 leukemia): > 100 µM | TGI (SNB-19 CNS): > 100 µM | TGI (SF-295 CNS): > 100 µM | TGI (SN12C renal): > 100 µM | TGI (K-562 leukemia): > 100 µM | TGI (OVCAR-3 ovarian): > 100 µM | TGI (SK-OV-3 ovarian): > 100 µM | TGI (MDA-MB-231 breast): > 100 µM | TGI (OVCAR-8 ovarian): > 100 µM | TGI (A498 renal): > 100 µM | TGI (PC-3 prostate): > 100 µM

O=[N+]([O-])c1ccc(N=Nc2c(O)ccc3cc(S(=O)(=O)O)cc(S(=O)(=O)O)c23)cc1
TGI (HOP-92 NSCLC): > 100 µM | TGI (IGROV1 ovarian): > 100 µM | TGI (UACC-257 melanoma): > 100 µM | TGI (SK-MEL-2 melanoma): > 100 µM | TGI (CAKI-1 renal): > 100 µM | TGI (NCI-H522 lung): > 100 µM | TGI (HOP-62 NSCLC): > 100 µM | TGI (T-47D breast): > 100 µM | TGI (NCI-H23 lung): > 100 µM | TGI (MDA-N): > 100 µM | TGI (NCI-H226 lung): > 100 µM | TGI (LOX IMVI melanoma): > 100 µM | TGI (U251 CNS): > 100 µM | TGI (786-0 renal): > 100 µM | TGI (SF-268 CNS): > 100 µM | TGI (SK-MEL-5 melanoma): > 100 µM | TGI (M14 melanoma): > 100 µM | TGI (SW-620 colon): > 100 µM | TGI (NCI/ADR-RES ovarian): > 100 µM | TGI (TK-10 renal): > 100 µM | TGI (MOLT-4 leukemia): > 100 µM | TGI (OVCAR-4 ovarian): > 100 µM | TGI (SNB-75 CNS): > 100 µM | TGI (SR leukemia): > 100 µM | TGI (KM12 colon): > 100 µM | TGI (A549 NSCLC): > 100 µM | TGI (UACC-62 melanoma): > 100 µM | TGI (MDA-MB-435): > 100 µM | TGI (COLO 205 colon): > 100 µM | TGI (UO-31 renal): > 100 µM | TGI (HT29 colon): > 100 µM | TGI (SK-MEL-28 melanoma): > 100 µM | TGI (DU-145 prostate): > 100 µM | TGI (MALME-3M melanoma): > 100 µM | TGI (OVCAR-5 ovarian): > 100 µM | TGI (HCT-116 colon): > 100 µM | TGI (CCRF-CEM leukemia): > 100 µM | TGI (BT-549 breast): > 100 µM | TGI (RXF 393 renal): > 100 µM | TGI (HCT-15 colon): > 100 µM | TGI (HS 578T breast): > 100 µM | TGI (ACHN renal): > 100 µM | TGI (RPMI-8226 leukemia): > 100 µM | TGI (SNB-19 CNS): > 100 µM | TGI (SF-295 CNS): > 100 µM | TGI (EKVX NSCLC): > 100 µM | TGI (SN12C renal): > 100 µM | TGI (K-562 leukemia): > 100 µM | TGI (OVCAR-3 ovarian): > 100 µM | TGI (SK-OV-3 ovarian): > 100 µM | TGI (MDA-MB-231 breast): > 100 µM | TGI (OVCAR-8 ovarian): > 100 µM | TGI (A498 renal): > 100 µM | TGI (PC-3 prostate): > 100 µM
